According to patent publication US11180657B2, “Polysulfonated fluorescence dyes” (ATTO-TEC GmbH, priority 2017, dated 2021):
Marks after values point to notes of the source that are not given here.

Assays:
[1] = Fluorescence maximum of the dye; type: physicochemical
From the text: (§1) Examples of the compounds according to the invention are listed in Tables 2-6, where the structures as well as the absorption and fluorescence maxima are indicated. The spectra of selected compounds are shown FIGS. 5-18.

[2] = Absorption maximum of the dye; type: physicochemical
From the text: as §1

Row | λfl ([1]; solvent PBS pH 7.4) | λabs ([2]; solvent PBS pH 7.4) | λfl ([1]; solvent ethanol) | λabs ([2]; solvent ethanol) | SMILES
1 | 704^b nm | 684^b nm |  |  | CC[N+]1=c2cc3c(cc2C(CS(=O)(=O)O)=CC1(C)C)=C(c1c(F)c(F)c(SCC(=O)O)c(F)c1F)c1cc2c(cc1C3(C)C)N(Cc1ccc(S(=O)(=O)O)cc1S(=O)(=O)O)CCC2 [Compound 43]
2 | 707^b nm | 687^b nm |  |  | CC1(C)C=C(CS(=O)(=O)O)c2cc3c(cc2N1)C(C)(C)c1cc2c(cc1=C3c1c(F)c(F)c(SCC(=O)O)c(F)c1F)C(CS(=O)(=O)O)=CC(C)(C)[N+]=2Cc1ccc(S(=O)(=O)O)cc1 [Compound 44]
3 | 719^b nm | 698^b nm |  |  | CC1(C)c2cc3c(cc2C(c2c(F)c(F)c(SCCS(=O)(=O)O)c(F)c2F)=c2cc4c(cc21)=[N+](CCc1ccc(S(=O)(=O)O)cc1)C(C)(C)C=C4CS(=O)(=O)O)C(CS(=O)(=O)O)=CC(C)(C)N3CCCC(=O)O [Compound 45]
4 | 666^b nm | 646^b nm |  |  | CN(Cc1ccc(S(=O)(=O)O)cc1S(=O)(=O)O)c1ccc2c(c1)C(C)(C)C1=C/C(=[N+](/C)Cc3ccc(S(=O)(=O)O)cc3S(=O)(=O)O)C=CC1=C2c1c(F)c(F)c(F)c(F)c1F [Compound 46]
5 | 666^b nm | 645^b nm |  |  | CN(Cc1ccc(S(=O)(=O)O)cc1S(=O)(=O)O)c1ccc2c(c1)C(C)(C)C1=C/C(=[N+](/C)Cc3ccc(S(=O)(=O)O)cc3S(=O)(=O)O)C=CC1=C2c1c(F)c(F)c(SCC(=O)O)c(F)c1F [Compound 47]
6 | 705^b nm | 682^b nm |  |  | CC1(C)c2cc3c(cc2C(c2c(F)c(F)c(SCCS(=O)(=O)O)c(F)c2F)=c2cc4c(cc21)=[N+](Cc1ccc(S(=O)(=O)O)cc1S(=O)(=O)O)C(C)(C)C=C4CS(=O)(=O)O)CCCN3CCCC(=O)O [Compound 48]
7 | 698^b nm | 673^b nm |  |  | CC1(C)c2cc3c(cc2C(c2c(Cl)cccc2Cl)=c2cc4c(cc21)=[N+](Cc1ccc(S(=O)(=O)O)cc1S(=O)(=O)O)C(C)(C)C=C4CS(=O)(=O)O)CCCN3CCCC(=O)O [Compound 52]
8 | 677^b nm | 654^b nm |  |  | CC1(C)c2cc3c(cc2C(c2c(Cl)cccc2Cl)=c2cc4c(cc21)=[N+](Cc1ccc(S(=O)(=O)O)cc1S(=O)(=O)O)C(C)(C)CC4CS(=O)(=O)O)CCCN3CCCC(=O)O (centres unmarked) [Compound 53]
9 | 749^b nm | 725^b nm |  |  | CCN1c2cc3c(cc2C(CS(=O)(=O)O)=CC1(C)C)C(c1n(C)cc[n+]1CCCCS(=O)(=O)O)=c1cc2c(cc1C3(C)C)=[N+](Cc1ccc(S(=O)(=O)O)cc1S(=O)(=O)O)CCC2 [Compound 55]
10 | 746^b nm | 724^b nm |  |  | CCN1c2cc3c(cc2C(CS(=O)(=O)O)=CC1(C)C)C(c1n(C)cc[n+]1CCCC(=O)O)=c1cc2c(cc1C3(C)C)=[N+](Cc1ccc(S(=O)(=O)O)cc1S(=O)(=O)O)CCC2 [Compound 56]
11 | 749^b nm | 725^b nm |  |  | Cn1cc[n+](CCCCS(=O)(=O)O)c1C1=c2cc3c(cc2C(C)(C)c2cc4c(cc21)C(CS(=O)(=O)O)=CC(C)(C)N4CCCC(=O)O)=[N+](Cc1ccc(S(=O)(=O)O)cc1S(=O)(=O)O)CCC3 [Compound 57]
12 | 775^b nm | 742^b nm |  |  | CC1=CC(C)(C)N(Cc2ccc(S(=O)(=O)O)cc2)c2cc3c(cc21)C(c1n(C)cc[n+]1CCCCS(=O)(=O)O)=c1cc2c(cc1C3(C)C)=[N+](CCCC(=O)O)C(C)(C)C=C2C [Compound 58]
13 | 771^b nm | 739^b nm |  |  | Cn1cc[n+](CCCCS(=O)(=O)O)c1C1=c2cc3c(cc2C(C)(C)c2cc4c(cc21)C(CS(=O)(=O)O)=CC(C)(C)N4CCS(=O)(=O)O)=[N+](CCCC(=O)O)C(C)(C)C=C3CS(=O)(=O)O [Compound 59]
14 | 775^b nm | 742^b nm |  |  | Cn1cc[n+](CCCCS(=O)(=O)O)c1C1=c2cc3c(cc2C(C)(C)c2cc4c(cc21)C(CS(=O)(=O)O)=CC(C)(C)N4Cc1ccc(S(=O)(=O)O)cc1S(=O)(=O)O)=[N+](CCCC(=O)O)C(C)(C)C=C3CS(=O)(=O)O [Compound 60]
15 | 776^b nm | 743^b nm |  |  | CC[N+]1=c2cc3c(cc2C(CS(=O)(=O)O)=CC1(C)C)=C(c1n(C)cc[n+]1CCCCC(=O)O)c1cc2c(cc1C3(C)C)N(Cc1ccc(S(=O)(=O)O)cc1S(=O)(=O)O)C(C)(C)C=C2CS(=O)(=O)O [Compound 61]
16 | 697^b nm | 667^b nm |  |  | CC[N+]1=c2cc3c(cc2C(CS(=O)(=O)O)=CC1(C)C)=C(c1ccc(C(=O)O)cc1)c1cc2c(cc1C3(C)C)N(Cc1ccc(S(=O)(=O)O)cc1S(=O)(=O)O)C(C)(C)C=C2CS(=O)(=O)O [Compound 64]
17 | 706^b nm | 679^b nm |  |  | CCN1c2cc3c(cc2C(CS(=O)(=O)O)=CC1(C)C)C(c1ccccc1C(=O)N(C)CCCC(=O)O)=c1cc2c(cc1C3(C)C)=[N+](Cc1ccc(S(=O)(=O)O)cc1S(=O)(=O)O)C(C)(C)C=C2CS(=O)(=O)O [Compound 65]
18 | 665^b nm | 645^b nm |  |  | CCN1c2cc3c(cc2C(CS(=O)(=O)O)CC1(C)C)C(c1ccccc1C(=O)N(C)CCCC(=O)O)=c1cc2c(cc1C3(C)C)=[N+](Cc1ccc(S(=O)(=O)O)cc1S(=O)(=O)O)C(C)(C)CC2CS(=O)(=O)O (centres unmarked) [Compound 66]
19 | 707^b nm | 679^b nm |  |  | CN(CCCC(=O)O)C(=O)c1ccccc1C1=c2cc3c(cc2C(C)(C)c2cc4c(cc21)C(CS(=O)(=O)O)=CC(C)(C)N4Cc1ccc(S(=O)(=O)O)cc1S(=O)(=O)O)=[N+](Cc1ccc(S(=O)(=O)O)cc1S(=O)(=O)O)C(C)(C)C=C3CS(=O)(=O)O [Compound 67]
20 | 666^b nm | 645^b nm |  |  | CN(CCCC(=O)O)C(=O)c1ccccc1C1=c2cc3c(cc2C(C)(C)c2cc4c(cc21)C(CS(=O)(=O)O)CC(C)(C)N4Cc1ccc(S(=O)(=O)O)cc1S(=O)(=O)O)=[N+](Cc1ccc(S(=O)(=O)O)cc1S(=O)(=O)O)C(C)(C)CC3CS(=O)(=O)O (centres unmarked) [Compound 68]
21 |  |  | 621^a nm | 597^a nm | CN(C)c1ccc2c(c1)C(C)(C)c1cc3c(cc1=C2)CCC[N+]=3CS(=O)(=O)O [Compound 75]
22 | 622^b nm | 596^b nm |  |  | CN(C)c1ccc2c(c1)C(C)(C)c1cc3c(cc1=C2)CCC[N+]=3Cc1ccc(S(=O)(=O)O)cc1S(=O)(=O)O [Compound 76]
23 | 751^b nm | 730^b nm |  |  | CN(C)c1ccc2c(c1)C(C)(C)c1cc3c(cc1=C2C#N)CCC[N+]=3Cc1ccc(S(=O)(=O)O)cc1S(=O)(=O)O [Compound 77]
24 | 609^b nm | 463 nm |  | 468 nm | CN(C)c1ccc2c(c1)C(C)(C)c1cc3c(cc1=C2NCCCCCC(=O)O)CCC[N+]=3Cc1ccc(S(=O)(=O)O)cc1S(=O)(=O)O [Compound 78]
25 | 649^b nm | 627^b nm |  |  | CC1(C)c2c(cc3c4c2CCCN4CCC3)C=c2cc3c(cc21)=[N+](Cc1ccc(S(=O)(=O)O)cc1S(=O)(=O)O)CCC3 [Compound 79]
26 | 761^b nm | 739^b nm |  |  | CC1(C)c2c(cc3c4c2CCCN4CCC3)C(C#N)=c2cc3c(cc21)=[N+](Cc1ccc(S(=O)(=O)O)cc1S(=O)(=O)O)CCC3 [Compound 80]

Row | SMILES | λfl ([1]; solvent PBS pH 7.4) | λabs ([2]; solvent PBS pH 7.4) | λfl ([1]; solvent ethanol) | λabs ([2]; solvent ethanol)
27 | CN(Cc1ccc(S(=O)(=O)O)cc1S(=O)(=O)O)c1ccc2c(c1)[Si](C)(C)C1=C/C(=[N+](/C)Cc3ccc(S(=O)(=O)O)cc3S(=O)(=O)O)C=CC1=C2c1c(F)c(F)c(SCC(=O)O)c(F)c1F [Compound 54] | 709^b nm | 685^b nm |  | 
28 | Cn1cc[n+](CCCC(=O)O)c1C1=c2cc3c(cc2[Si](C)(C)c2cc4c(cc21)C(CS(=O)(=O)O)=CC(C)(C)N4Cc1ccc(S(=O)(=O)O)cc1S(=O)(=O)O)=[N+](Cc1ccc(S(=O)(=O)O)cc1S(=O)(=O)O)C(C)(C)C=C3CS(=O)(=O)O [Compound 62] | 817^b nm | 791^b nm |  | 
29 | Cn1cc[n+](CCCC(=O)O)c1C1=c2cc3c(cc2[Si](C)(C)c2cc4c(cc21)C(CS(=O)(=O)O)CC(C)(C)N4Cc1ccc(S(=O)(=O)O)cc1S(=O)(=O)O)=[N+](Cc1ccc(S(=O)(=O)O)cc1S(=O)(=O)O)C(C)(C)CC3CS(=O)(=O)O (centres unmarked) [Compound 63] | 776^b nm | 752^b nm |  | 
30 | CN(CCCC(=O)O)C(=O)c1ccccc1C1=C2C=C/C(=[N+](\C)Cc3ccc(S(=O)(=O)O)cc3S(=O)(=O)O)C=C2[Si](C)(C)c2cc(N(C)Cc3ccc(S(=O)(=O)O)cc3S(=O)(=O)O)ccc21 [Compound 69] | 680^b nm | 658^b nm |  | 
31 | CN(Cc1ccc(S(=O)(=O)O)cc1S(=O)(=O)O)c1ccc2c(c1)[Si](C)(C)C1=C/C(=[N+](/C)Cc3ccc(S(=O)(=O)O)cc3S(=O)(=O)O)C=CC1=C2c1cc(C(=O)O)ccc1C(=O)O [Compound 70] | 670^b nm | 649^b nm |  | 
32 | CN(CCCC(=O)O)C(=O)c1ccccc1C1=c2cc3c(cc2[Si](C)(C)c2cc4c(cc21)C(CS(=O)(=O)O)=CC(C)(C)N4Cc1ccc(S(=O)(=O)O)cc1S(=O)(=O)O)=[N+](Cc1ccc(S(=O)(=O)O)cc1S(=O)(=O)O)C(C)(C)C=C3CS(=O)(=O)O [Compound 71] | 752^b nm | 722^b nm |  | 
33 | CC1(C)C=C(CS(=O)(=O)O)c2cc3c(cc2N1Cc1ccc(S(=O)(=O)O)cc1S(=O)(=O)O)[Si](C)(C)c1cc2c(cc1=C3c1cc(C(=O)O)ccc1C(=O)O)C(CS(=O)(=O)O)=CC(C)(C)[N+]=2Cc1ccc(S(=O)(=O)O)cc1S(=O)(=O)O [Compound 72] | 740^b nm | 711^b nm |  | 
34 | CN(CCCC(=O)O)C(=O)c1ccccc1C1=c2cc3c(cc2[Si](C)(C)c2cc4c(cc21)C(CS(=O)(=O)O)CC(C)(C)N4Cc1ccc(S(=O)(=O)O)cc1S(=O)(=O)O)=[N+](Cc1ccc(S(=O)(=O)O)cc1S(=O)(=O)O)C(C)(C)CC3CS(=O)(=O)O (centres unmarked) [Compound 73] | 708^b nm | 686^b nm |  | 
35 | CC1(C)CC(CS(=O)(=O)O)c2cc3c(cc2N1Cc1ccc(S(=O)(=O)O)cc1S(=O)(=O)O)[Si](C)(C)c1cc2c(cc1=C3c1cc(C(=O)O)ccc1C(=O)O)C(CS(=O)(=O)O)CC(C)(C)[N+]=2Cc1ccc(S(=O)(=O)O)cc1S(=O)(=O)O (centres unmarked) [Compound 74] | 698^b nm | 675^b nm |  | 
